How the values were obtained:
velvetleaf (ABUTH) [1] = assay: Test 18 greenhouse, post- and preemergence; conditions: 15 DAA
velvetleaf (ABUTH) [2] = assay: Test 16 greenhouse, post- and preemergence; conditions: 15 DAA
kochia (KCHSC) = assay: Test 27 field trial, postemergence; type: in vivo, Kochia scoparia; set-up: scale not given here; conditions: tribenuron-methyl 10 g a.i./ha
From the text: (§1) Wheat seeds (cv. ‘Custer’) were planted in late fall season in a clay loam soil. Plots were 9 m long by 1.8 m wide. The field was managed using conventional tillage practices. […] All treatments also included a surfactant. […] Results are the means of the three replicates.

winter wheat (TRZAW) = assay: Test 27 field trial, postemergence; type: in vivo, Triticum aestivum; conditions: in vivo
From the text: as §1

C#CCOc1cc(-n2nc3n(c2=O)CCCC3)c(Cl)cc1Cl [Azafenidin]
Postemergence ABUTH Obs (velvetleaf (ABUTH) [1]; alone at 7.5 g a.i./ha): 46 | Preemergence ABUTH Obs (velvetleaf (ABUTH) [1]; alone at 7.5 g a.i./ha): 18 | Postemergence ABUTH Obs (velvetleaf (ABUTH) [1]; alone at 15 g a.i./ha): 73 | Preemergence ABUTH Obs (velvetleaf (ABUTH) [1]; alone at 15 g a.i./ha): 35 | Postemergence ABUTH Obs (velvetleaf (ABUTH) [1]; alone at 30 g a.i./ha): 81 | Preemergence ABUTH Obs (velvetleaf (ABUTH) [1]; alone at 30 g a.i./ha): 67 | Postemergence ABUTH Obs (velvetleaf (ABUTH) [1]; alone at 45 g a.i./ha): 86 | Preemergence ABUTH Obs (velvetleaf (ABUTH) [1]; alone at 45 g a.i./ha): 68

O=C(O)c1cc(Oc2ccc(C(F)(F)F)cc2Cl)ccc1[N+](=O)[O-] [Acifluorfen]
Obs response, scale 0 to 100 (velvetleaf (ABUTH) [2]; Postemergence, 7.5 g a.i./ha): 0 | Obs response, scale 0 to 100 (velvetleaf (ABUTH) [2]; Postemergence, 15 g a.i./ha): 0 | Obs response, scale 0 to 100 (velvetleaf (ABUTH) [2]; Postemergence, 30 g a.i./ha): 0 | Obs response, scale 0 to 100 (velvetleaf (ABUTH) [2]; Preemergence, 7.5 g a.i./ha): 0 | Obs response, scale 0 to 100 (velvetleaf (ABUTH) [2]; Preemergence, 15 g a.i./ha): 2 | Obs response, scale 0 to 100 (velvetleaf (ABUTH) [2]; Preemergence, 30 g a.i./ha): 2

C#CCN1C(=O)COc2cc(F)c(N3C(=O)C4=C(CCCC4)C3=O)cc21 [Flumioxazin]
Obs response, scale 0 to 100 (velvetleaf (ABUTH) [2]; Postemergence, 7.5 g a.i./ha): 36 | Obs response, scale 0 to 100 (velvetleaf (ABUTH) [2]; Postemergence, 15 g a.i./ha): 47 | Obs response, scale 0 to 100 (velvetleaf (ABUTH) [2]; Postemergence, 30 g a.i./ha): 52 | Obs response, scale 0 to 100 (velvetleaf (ABUTH) [2]; Postemergence, 45 g a.i./ha): 69 | Obs response, scale 0 to 100 (velvetleaf (ABUTH) [2]; Preemergence, 7.5 g a.i./ha): 58 | Obs response, scale 0 to 100 (velvetleaf (ABUTH) [2]; Preemergence, 15 g a.i./ha): 65 | Obs response, scale 0 to 100 (velvetleaf (ABUTH) [2]; Preemergence, 30 g a.i./ha): 93 | Obs response, scale 0 to 100 (velvetleaf (ABUTH) [2]; Preemergence, 45 g a.i./ha): 100

COC(=O)c1ccccc1S(=O)(=O)NC(=O)N(C)c1nc(C)nc(OC)n1 [Tribenuron-methyl]
KCHSC Obs (kochia (KCHSC); 16 DAA): 22 | KCHSC Obs (kochia (KCHSC); 28 DAA): 23 | KCHSC Obs (kochia (KCHSC); 49 DAA): 22 | TRZAW Obs (winter wheat (TRZAW); cv. Custer, Triticum aestivum (winter wheat), 16 days after application): 0 | TRZAW Obs (winter wheat (TRZAW); cv. Custer, Triticum aestivum (winter wheat), 28 days after application): 0 | TRZAW Obs (winter wheat (TRZAW)): 0
